# Laboratory results published in publication PMC5218480 (PLoS ONE, 2017).
# Test system: MV-4-11 cells
# Test: Gene expression microarray analysis (Affymetrix PrimeView) and GSEA
# Assay type: cell-based, human
# Parameters: RFU PODN (11730768_x_at) / Fold change /veh PODN (11730768_x_at) / RFU LINC00158 (11744669_a_at) / Fold change /veh LINC00158 (11744669_a_at) / RFU DUSP10 (11751237_a_at) / Fold change /veh DUSP10 (11751237_a_at) / RFU ID3 (11757404_x_at) / Fold change /veh ID3 (11757404_x_at) / RFU PLEKHG5 (11737974_s_at) / Fold change /veh PLEKHG5 (11737974_s_at) / RFU LRRC4B (11730491_at) / Fold change /veh LRRC4B (11730491_at) / RFU GIMAP4 (11747438_a_at) / Fold change /veh GIMAP4 (11747438_a_at) / RFU KRT8 (11758183_x_at) / Fold change /veh KRT8 (11758183_x_at) / RFU CNN1 (11734310_a_at) / Fold change /veh CNN1 (11734310_a_at) / RFU VPS37D (11726825_at) / Fold change /veh VPS37D (11726825_at) / RFU C10orf10 (11716522_x_at) / Fold change /veh C10orf10 (11716522_x_at) / RFU KIR2DL2 /// KIR2DL4 /// KIR2DL5A /// KIR2DL5B /// KIR2DS1 /// KIR2DS2 /// KIR2DS3 /// KIR2DS4 /// KIR3DL3 /// KIR3DL3 /// KIR3DS1 (11738374_at) / Fold change /veh KIR2DL2 /// KIR2DL4 /// KIR2DL5A /// KIR2DL5B /// KIR2DS1 /// KIR2DS2 /// KIR2DS3 /// KIR2DS4 /// KIR3DL3 /// KIR3DL3 /// KIR3DS1 (11738374_at) / RFU C1QL1 (11718748_at) / Fold change /veh C1QL1 (11718748_at) / RFU TMPRSS4 (11747572_a_at) / Fold change /veh TMPRSS4 (11747572_a_at) / RFU HAMP (11756126_x_at) / Fold change /veh HAMP (11756126_x_at) / RFU RNFT2 (11725882_a_at) / Fold change /veh RNFT2 (11725882_a_at) / RFU NR4A2 (11747474_a_at) / Fold change /veh NR4A2 (11747474_a_at) / RFU ABCC12 (11746883_a_at) / Fold change /veh ABCC12 (11746883_a_at) / RFU TMEM136 (11760407_x_at) / Fold change /veh TMEM136 (11760407_x_at) / RFU CLDN22 /// WWC2 (11732394_at) / Fold change /veh CLDN22 /// WWC2 (11732394_at) / RFU HLA-DPB1 (11760878_x_at) / Fold change /veh HLA-DPB1 (11760878_x_at) / RFU SPINT1 (11716480_a_at) / Fold change /veh SPINT1 (11716480_a_at) / RFU GAP43 (11754022_s_at) / Fold change /veh GAP43 (11754022_s_at) / RFU A4GNT (11735810_at) / Fold change /veh A4GNT (11735810_at) / RFU PRB3 (11715151_x_at) / Fold change /veh PRB3 (11715151_x_at) / RFU TUBB4B (11761932_at) / Fold change /veh TUBB4B (11761932_at) / RFU CAPN14 (11732068_a_at) / Fold change /veh CAPN14 (11732068_a_at) / RFU TMCC2 (11721928_a_at) / Fold change /veh TMCC2 (11721928_a_at) / RFU IRGQ (11745062_a_at) / Fold change /veh IRGQ (11745062_a_at) / RFU FAM174B (11720279_a_at) / Fold change /veh FAM174B (11720279_a_at) / RFU TMPRSS4 (11748680_a_at) / Fold change /veh TMPRSS4 (11748680_a_at) / RFU FAM212B (11763350_a_at) / Fold change /veh FAM212B (11763350_a_at) / RFU PLEKHG5 (11743358_a_at) / Fold change /veh PLEKHG5 (11743358_a_at) / RFU ZSCAN30 (11745921_a_at) / Fold change /veh ZSCAN30 (11745921_a_at) / RFU CMKLR1 (11741424_a_at) / Fold change /veh CMKLR1 (11741424_a_at) / RFU LOC101060620 /// MAPK8IP1 (11723275_at) / Fold change /veh LOC101060620 /// MAPK8IP1 (11723275_at) / RFU SPTSSB (11747773_x_at) / Fold change /veh SPTSSB (11747773_x_at) / RFU PRSS12 (11739890_at) / Fold change /veh PRSS12 (11739890_at) / RFU BIN1 (11741810_x_at) / Fold change /veh BIN1 (11741810_x_at) / RFU WNT11 (11732464_a_at) / Fold change /veh WNT11 (11732464_a_at) / RFU C10orf10 (11716521_a_at) / Fold change /veh C10orf10 (11716521_a_at) / RFU C5orf56 (11738089_at) / Fold change /veh C5orf56 (11738089_at) / RFU CYB561 (11721691_x_at) / Fold change /veh CYB561 (11721691_x_at) / RFU ANKRD19P (11752326_a_at) / Fold change /veh ANKRD19P (11752326_a_at) / RFU OR2T12 /// OR2T33 /// OR2T8 (11738714_s_at) / Fold change /veh OR2T12 /// OR2T33 /// OR2T8 (11738714_s_at) / RFU VCAN (11748164_a_at) / Fold change /veh VCAN (11748164_a_at) / RFU JSRP1 (11732532_at) / Fold change /veh JSRP1 (11732532_at) / RFU KRTAP10-11 (11738290_x_at) / Fold change /veh KRTAP10-11 (11738290_x_at) / RFU MYO3A (11730013_a_at) / Fold change /veh MYO3A (11730013_a_at) / RFU EBF3 (11725865_a_at) / Fold change /veh EBF3 (11725865_a_at) / RFU CAMK2N1 (11719241_x_at) / Fold change /veh CAMK2N1 (11719241_x_at) / RFU C5orf56 (11738088_a_at) / Fold change /veh C5orf56 (11738088_a_at) / RFU OLFML3 (11715873_a_at) / Fold change /veh OLFML3 (11715873_a_at) / RFU LOC100653217 /// NTM (11731650_a_at) / Fold change /veh LOC100653217 /// NTM (11731650_a_at) / RFU MAPK11 (11762145_a_at) / Fold change /veh MAPK11 (11762145_a_at) / RFU FIZ1 (11724087_x_at) / Fold change /veh FIZ1 (11724087_x_at) / RFU OASL (11726364_x_at) / Fold change /veh OASL (11726364_x_at) / RFU SOX15 (11748057_x_at) / Fold change /veh SOX15 (11748057_x_at) / RFU CD79A (11719716_a_at) / Fold change /veh CD79A (11719716_a_at) / RFU HIST1H1D (11736915_at) / Fold change /veh HIST1H1D (11736915_at) / RFU CASKIN2 (11723855_a_at) / Fold change /veh CASKIN2 (11723855_a_at) / RFU LOC730098 (11760151_x_at) / Fold change /veh LOC730098 (11760151_x_at) / RFU OR4N2 (11742367_at) / Fold change /veh OR4N2 (11742367_at) / RFU PRRT2 (11749266_a_at) / Fold change /veh PRRT2 (11749266_a_at) / RFU SNX32 (11753110_a_at) / Fold change /veh SNX32 (11753110_a_at) / RFU CDHR5 (11726645_a_at) / Fold change /veh CDHR5 (11726645_a_at) / RFU RCAN1 (11760418_a_at) / Fold change /veh RCAN1 (11760418_a_at) / RFU FAM167A (11723789_a_at) / Fold change /veh FAM167A (11723789_a_at) / RFU FAM26E (11764081_at) / Fold change /veh FAM26E (11764081_at) / RFU ISYNA1 (11749810_s_at) / Fold change /veh ISYNA1 (11749810_s_at) / RFU ACY1 (11761880_at) / Fold change /veh ACY1 (11761880_at) / RFU 11764098_at / Fold change /veh 11764098_at / RFU SAMD14 (11745864_x_at) / Fold change /veh SAMD14 (11745864_x_at) / RFU NPB (11741838_a_at) / Fold change /veh NPB (11741838_a_at) / RFU TMPRSS6 (11731388_a_at) / Fold change /veh TMPRSS6 (11731388_a_at) / RFU KRTAP10-2 (11738614_at) / Fold change /veh KRTAP10-2 (11738614_at) / RFU ARHGAP8 /// PRR5-ARHGAP8 (11727945_x_at) / Fold change /veh ARHGAP8 /// PRR5-ARHGAP8 (11727945_x_at) / RFU KRTAP5-7 /// NADSYN1 (11734609_at) / Fold change /veh KRTAP5-7 /// NADSYN1 (11734609_at) / RFU RASL12 (11751679_a_at) / Fold change /veh RASL12 (11751679_a_at) / RFU CDKN2B (11736163_a_at) / Fold change /veh CDKN2B (11736163_a_at) / RFU PRF1 (11729649_at) / Fold change /veh PRF1 (11729649_at) / RFU, ZNF638 /// ZNF638-IT1 / Fold change vs veh, ZNF638 /// ZNF638-IT1 / RFU, PANK3 / Fold change vs veh, PANK3 / RFU, SH3YL1 / Fold change vs veh, SH3YL1 / RFU, ZEB2 / Fold change vs veh, ZEB2 / RFU, NRIP1 / Fold change vs veh, NRIP1 / RFU, PTTG1IP / Fold change vs veh, PTTG1IP / RFU, CAPN2 / Fold change vs veh, CAPN2 / RFU, MED14 / Fold change vs veh, MED14 / RFU, SNORA58 / Fold change vs veh, SNORA58 / RFU, C1orf63 / Fold change vs veh, C1orf63 / RFU, LRRFIP1 / Fold change vs veh, LRRFIP1 / RFU, NDUFAF7 / Fold change vs veh, NDUFAF7 / RFU, SLC12A2 / Fold change vs veh, SLC12A2 / RFU, IBTK / Fold change vs veh, IBTK / RFU, ESF1 / Fold change vs veh, ESF1 / Fold change vs veh, TMEM50B / RFU, TAOK1 / Fold change vs veh, TAOK1 / RFU, ACBD3 / Fold change vs veh, ACBD3 / RFU, TMA16 / Fold change vs veh, TMA16 / RFU, RWDD3 / Fold change vs veh, RWDD3 / RFU, BCAT1 / Fold change vs veh, BCAT1 / RFU, EDEM3 / Fold change vs veh, EDEM3 / RFU, TMEM33 / Fold change vs veh, TMEM33 / RFU, WDR75 / Fold change vs veh, WDR75 / RFU, AHCTF1 / Fold change vs veh, AHCTF1 / RFU, TFRC / Fold change vs veh, TFRC / RFU, ZDHHC17 / Fold change vs veh, ZDHHC17 / RFU, NOM1 / Fold change vs veh, NOM1 / RFU, ARL8B / Fold change vs veh, ARL8B / RFU, ZBTB11 / Fold change vs veh, ZBTB11 / RFU, TAMM41 / Fold change vs veh, TAMM41 / RFU, KIAA1704 /// LOC100996395 / Fold change vs veh, KIAA1704 /// LOC100996395 / RFU, ING1 / Fold change vs veh, ING1 / RFU, TRMT61B / Fold change vs veh, TRMT61B / RFU, FUBP3 / Fold change vs veh, FUBP3 / RFU, TP53 / Fold change vs veh, TP53 / RFU, TNKS2 / Fold change vs veh, TNKS2 / RFU, ZFP14 / Fold change vs veh, ZFP14 / RFU, ACTR2 / Fold change vs veh, ACTR2 / RFU, PPP3R1 / Fold change vs veh, PPP3R1 / RFU, PIK3R1 / Fold change vs veh, PIK3R1 / RFU, HNRNPA1 / Fold change vs veh, HNRNPA1 / RFU, RNF170 / Fold change vs veh, RNF170 / RFU, ZNF28 / Fold change vs veh, ZNF28 / RFU, RNGTT / Fold change vs veh, RNGTT / RFU, OGT / Fold change vs veh, OGT / RFU, BRD1 / Fold change vs veh, BRD1 / RFU, MARS / Fold change vs veh, MARS / RFU, ZNF655 / Fold change vs veh, ZNF655 / RFU, FAHD1 / Fold change vs veh, FAHD1 / RFU, BDP1 / Fold change vs veh, BDP1 / RFU, LRRCC1 / Fold change vs veh, LRRCC1 / RFU, ARID1A / Fold change vs veh, ARID1A / RFU, ZNF146 / Fold change vs veh, ZNF146 / RFU, ZNF330 / Fold change vs veh, ZNF330 / RFU, GPN3 / Fold change vs veh, GPN3 / RFU, C9orf123 / Fold change vs veh, C9orf123 / RFU, N4BP2L2 / Fold change vs veh, N4BP2L2 / RFU, ARFIP1 / Fold change vs veh, ARFIP1 / RFU, FAM179B / Fold change vs veh, FAM179B / RFU, BCL10 / Fold change vs veh, BCL10 / RFU, UHRF1BP1L / Fold change vs veh, UHRF1BP1L / RFU, BET1 / Fold change vs veh, BET1 / RFU, CNOT2 / Fold change vs veh, CNOT2 / RFU, ZNF268 / Fold change vs veh, ZNF268 / Fold change vs veh, ZNF507 / RFU, DGCR2 / Fold change vs veh, DGCR2 / RFU, WDSUB1 / Fold change vs veh, WDSUB1 / Fold change vs veh, HSP90B1 /// MIR3652 / RFU, ADSS / Fold change vs veh, ADSS / RFU, GK / Fold change vs veh, GK / RFU, ZNF148 / Fold change vs veh, ZNF148 / RFU, TAF9 / Fold change vs veh, TAF9 / RFU, SLC1A5 / Fold change vs veh, SLC1A5 / RFU, SLMO2 / Fold change vs veh, SLMO2 / RFU, ABCC4 / Fold change vs veh, ABCC4 / RFU, LOC101060439 /// RAP1B / Fold change vs veh, LOC101060439 /// RAP1B / RFU, RFX7 / Fold change vs veh, RFX7 / RFU, GTPBP10 / Fold change vs veh, GTPBP10 / RFU, CNEP1R1 / Fold change vs veh, CNEP1R1 / RFU, BIVM-ERCC5 /// ERCC5 / Fold change vs veh, BIVM-ERCC5 /// ERCC5 / RFU, ILF3 / Fold change vs veh, ILF3 / RFU 11762660_at / Fold change /veh 11762660_at / RFU VCAN (11757783_s_at) / Fold change /veh VCAN (11757783_s_at) / RFU DDX43 (11728927_at) / Fold change /veh DDX43 (11728927_at) / RFU KRT8 (11758188_x_at) / Fold change /veh KRT8 (11758188_x_at) / RFU NKD1 (11759106_at) / Fold change /veh NKD1 (11759106_at) / RFU SRD5A1 (11742802_a_at) / Fold change /veh SRD5A1 (11742802_a_at) / RFU TPSAB1 /// TPSB2 (11721975_s_at) / Fold change /veh TPSAB1 /// TPSB2 (11721975_s_at) / RFU GSTM3 (11746129_a_at) / Fold change /veh GSTM3 (11746129_a_at) / RFU IL23R (11737362_x_at) / Fold change /veh IL23R (11737362_x_at) / RFU TMEM51 (11727254_a_at) / Fold change /veh TMEM51 (11727254_a_at) / RFU PIWIL2 (11732686_x_at) / Fold change /veh PIWIL2 (11732686_x_at) / RFU ORM1 (11744905_x_at) / Fold change /veh ORM1 (11744905_x_at) / RFU CCDC152 (11743942_at) / Fold change /veh CCDC152 (11743942_at) / RFU ECM1 (11717891_a_at) / Fold change /veh ECM1 (11717891_a_at) / RFU IL23R (11748794_a_at) / Fold change /veh IL23R (11748794_a_at) / RFU TNFAIP8L3 (11732012_x_at) / Fold change /veh TNFAIP8L3 (11732012_x_at) / RFU MBOAT4 (11741988_at) / Fold change /veh MBOAT4 (11741988_at) / RFU 11764193_at / Fold change /veh 11764193_at / RFU TMEM53 (11763286_at) / Fold change /veh TMEM53 (11763286_at) / RFU MAGEB2 (11727129_at) / Fold change /veh MAGEB2 (11727129_at) / RFU TMEM200A (11744735_a_at) / Fold change /veh TMEM200A (11744735_a_at) / RFU CCDC152 (11751479_a_at) / Fold change /veh CCDC152 (11751479_a_at) / RFU FAM211A (11726209_a_at) / Fold change /veh FAM211A (11726209_a_at) / RFU RGS16 (11746705_a_at) / Fold change /veh RGS16 (11746705_a_at) / RFU VCAN (11755009_s_at) / Fold change /veh VCAN (11755009_s_at) / RFU RHOB (11743442_s_at) / Fold change /veh RHOB (11743442_s_at) / RFU RGS16 (11720943_a_at) / Fold change /veh RGS16 (11720943_a_at) / RFU RGS16 (11720944_at) / Fold change /veh RGS16 (11720944_at) / RFU, VPS4B / Fold change vs veh, VPS4B / RFU, CREB1 / Fold change vs veh, CREB1 / RFU, DNAJC13 / Fold change vs veh, DNAJC13 / RFU, GNAQ / Fold change vs veh, GNAQ / RFU, CDK5R1 / Fold change vs veh, CDK5R1 / RFU, ZRANB3 / Fold change vs veh, ZRANB3 / RFU, CUL4A / Fold change vs veh, CUL4A / RFU, CCNY / Fold change vs veh, CCNY / RFU, UFL1 / Fold change vs veh, UFL1 / RFU, COG3 / Fold change vs veh, COG3 / RFU, DIAPH2 / Fold change vs veh, DIAPH2 / RFU, SKA2 / Fold change vs veh, SKA2 / RFU, AFF3 / Fold change vs veh, AFF3 / RFU, LMF1 / Fold change vs veh, LMF1 / RFU, IPO11 / Fold change vs veh, IPO11 / RFU, DFFB / Fold change vs veh, DFFB / RFU, FOXP1 / Fold change vs veh, FOXP1 / RFU, CARD8 / Fold change vs veh, CARD8 / RFU, STRN3 / Fold change vs veh, STRN3 / RFU, ADK / Fold change vs veh, ADK / RFU, RASSF2 / Fold change vs veh, RASSF2 / RFU, WIPF1 / Fold change vs veh, WIPF1 / RFU, LARP1B / Fold change vs veh, LARP1B / RFU, RASA1 / Fold change vs veh, RASA1 / RFU, RB1 / Fold change vs veh, RB1 / RFU, PPFIA1 / Fold change vs veh, PPFIA1 / RFU, MAT2A / Fold change vs veh, MAT2A / RFU, CCT5 / Fold change vs veh, CCT5 / RFU, WDR92 / Fold change vs veh, WDR92 / RFU, CUX1 / Fold change vs veh, CUX1 / RFU, TTC7A / Fold change vs veh, TTC7A / RFU, TMEM135 / Fold change vs veh, TMEM135 / RFU, DEPTOR / Fold change vs veh, DEPTOR / RFU, CPM / Fold change vs veh, CPM / RFU, DNAJB6 / Fold change vs veh, DNAJB6 / RFU, CACNA2D3 / Fold change vs veh, CACNA2D3 / RFU, DTX4 / Fold change vs veh, DTX4 / RFU, TFCP2 / Fold change vs veh, TFCP2 / RFU, GMCL1 /// GMCL1P1 / Fold change vs veh, GMCL1 /// GMCL1P1 / RFU, AEBP2 / Fold change vs veh, AEBP2 / RFU, SNHG1 /// SNORD22 /// SNORD25 /// SNORD26 /// SNORD27 /// SNORD28 /// SNORD29 /// SNORD31 / Fold change vs veh, SNHG1 /// SNORD22 /// SNORD25 /// SNORD26 /// SNORD27 /// SNORD28 /// SNORD29 /// SNORD31 / Fold change (Aza/veh), C12orf56 (ProbeSet 11735607_a_at) / Fold change (ACY-1035/veh), C12orf56 (ProbeSet 11735607_a_at) / Fold change (Aza/veh), FGFR1OP (ProbeSet 11751329_s_at) / Fold change (ACY-1035/veh), FGFR1OP (ProbeSet 11751329_s_at) / Fold change (Aza/veh), VPS36 (ProbeSet 11739960_a_at) / Fold change (ACY-1035/veh), VPS36 (ProbeSet 11739960_a_at) / RFU SYPL1 (11715823_x_at) / Fold change /veh SYPL1 (11715823_x_at) / RFU IGFBP7 (11715501_s_at) / Fold change /veh IGFBP7 (11715501_s_at) / RFU REEP3 (11722064_at) / Fold change /veh REEP3 (11722064_at) / RFU IGLL1 (11728026_x_at) / Fold change /veh IGLL1 (11728026_x_at): dose or concentration left out as unconfirmed
# Settings: ProbeSet 11747889_x_at; LIST B
smiles,measurement,value
Nc1ccc(-c2cccs2)cc1NC(=O)c1ccc2c(c1)cc(C1CC1)n2CCN1CCOCC1 [ACY-1035],"Fold change vs veh, SH3YL1",0.99
